Source: patent US8569242B2, “Method of treating degenerative disorders of the nervous system” (The Regents of the University of California, priority 2005, dated 2013)
Values joined by “and” are separate entries in the source; they are usually repeats but may differ in a detail not shown here. Equal values may be shown once.

Columns and labels:
[1] = system: primary murine microglia and a murine microglia cell line (BV2); experiment: Vybrant phagocytosis assay in microglia; type: cell-based, mouse; conditions: fluorescent E. coli; stimulation with immobilized fibrinogen or LPS
Method: Phagocytosis assay. Phagocytosis assays were performed on both primary murine microglia and a murine microglia cell line (BV2). BV2 cells are an established cell line used to study microglia responses (46). BV2 cells were routinely passaged in DMEM, 20% heat inactivated FBS, and 1% Pen/Strep. Microglia phagocytosis was assessed using the Vybrant phagocytosis assay kit (Molecular Probes, Eugene, Oreg.) according to the manufacturer's recommendations. Microglia were cultured in 96-well plates at 5,000 cells/well for 36 hours at 37° C. Blocking experiments included the addition of LY294002 (1 μM, Cell Signaling, Beverly, Mass.), rat anti-CD11b ([…], eBioscience, San Diego, Calif.), rat anti-TLR4 (10 μg/mL, eBioscience, San Diego, Calif.) or rat IgG (10 μg/mL, Jackson ImmunoResearch Laboratories, West Grove, Pa.) to the media. Results were obtained from four separate experiments performed in triplicates. Statistical calculations were made by using Student's t-test.

primary microglia = experiment: Morphometry of microglia activation (Isolectin B4 staining, cell size); type: cell-based, mouse
Method: Culture of primary microglia cells. Microglia were isolated from cultures of mixed cortical cells as described (59). In brief, cortices from P1 mice were isolated and digested with trypsin (0.4%) for 20 minutes at 37° C. Cells from 4 pups were plated onto PDL-coated 75 cm2 tissue-culture flasks. The culture medium (DMEM, 10% heat-inactivated FBS, and 1% Pen/Strep) was changed on day 2. After 2-3 weeks in culture, the microglia were removed by the addition of 12 mM lidocaine (Sigma-Aldrich, St. Louis, Mo.) and orbital shaking (180 rpm) for 20 minutes at 37° C. The cells were centrifuged (350×G) and the pellet was resuspended in complete medium and plated onto PDL-coated tissue culture dishes. Microglia cell cultures were >95% pure as determined with three different markers, IsoB4, IBA-1 and CD11b. To immobilize fibrinogen, tissue culture dishes were incubated overnight with 50 μg/mL fibrinogen (Calbiochem, San Diego, Calif.) in 20 mM Tris (pH 7.5) and 0.1 M NaCl at 37° C. for all fibrinogen treatments. To serve as positive controls, LPS (Sigma-Aldrich, St. Louis, Mo.) was added to the media at 1 μg/mL.
Morphometry. Primary microglia were used for all morphologic analysis. Cells were plated on coated fibrinogen or in the presence of LPS for 72 hours. Microglia were fixed with methanol and immunostained with Isolectin B4 (1:300, Sigma-Aldrich, St. Louis, Mo.). Activated microglia were quantificated as those cells larger than 2,000 μm^2. Blocking experiments involved the daily administration of rat anti-CD11b (10 μg/mL, eBioscience, San Diego, Calif.), γ^377-395 peptide (200 μM) or rat IgG (10 μg/mL, Jackson ImmunoResearch Laboratories, West Grove, Pa.). Results were obtained from six separate experiments performed in duplicates. 250 cells per condition were counted for each individual experiment. Statistical calculations were made by using Student's t test.

RhoA = RhoA activation (GST-Rhotekin pull-down, immunoblot) in microglia; type: cell-based, mouse; conditions: fibrinogen 6 hours, LPS 10 minutes; densitometry
Method: (§1) Immunoblots. Western blots were performed using standard protocols (55). Microglia were serum-starved overnight and plated on fibrinogen or with LPS for 6 hours. Lysates were electrophoresed on 4-12% gradient SDS-PAGE gels and probed with phospho and total Akt antibodies (1:1000, Cell Signaling, Beverly, Mass.). RhoA activation was performed as described (60). Briefly, 2×107 microglia were plated on fibrinogen for 6 hours or with LPS for 10 minutes. Cell lysates were incubated with GST-Rhotekin agarose beads (kindly provided by Dr. Joan Heller Brown, UCSD) for 45 minutes at 4° C. The beads were washed, resuspended in Laemmli sample buffer, and electophoresed on a 15% SDS-PAGE gel. Activated and total Rho were detected with mouse anti-RhoA (1:500, Santa Cruz Biotechnology, Santa Cruz, Calif.). Densitometry was performed using the NIH Scion Image software using three blots from three separate experiments.

Akt = Akt phosphorylation immunoblot in microglia; type: cell-based, mouse; conditions: fibrinogen or LPS 6 hours; densitometry
Method: as §1

fibrin = molecular target: T1, fibrin (Mus musculus, UniProt E9PV24+Q8K0E8+Q8VCM7); experiment: In vitro fibrin polymerization turbidity assay in plasma; type: biochemical; conditions: citrate plasma, bovine thrombin 0.2 U/ml, OD350
T1 construct: from tissue; host or cells: citrated mouse plasma, diluted tenfold
T1 sequence (Q8VCM7 26-436): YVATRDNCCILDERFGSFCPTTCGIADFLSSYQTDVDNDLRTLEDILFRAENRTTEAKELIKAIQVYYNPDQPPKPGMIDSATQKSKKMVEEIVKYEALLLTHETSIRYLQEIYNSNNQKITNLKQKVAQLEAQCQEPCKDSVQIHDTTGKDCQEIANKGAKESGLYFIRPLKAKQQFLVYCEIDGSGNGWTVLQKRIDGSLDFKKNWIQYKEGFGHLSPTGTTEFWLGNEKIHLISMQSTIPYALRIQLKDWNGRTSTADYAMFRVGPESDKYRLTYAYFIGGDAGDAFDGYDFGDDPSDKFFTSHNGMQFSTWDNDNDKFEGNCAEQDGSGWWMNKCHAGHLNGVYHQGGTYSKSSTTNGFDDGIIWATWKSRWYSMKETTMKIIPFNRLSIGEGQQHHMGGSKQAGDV
T1 sequence (E9PV24 37-789 limits assumed): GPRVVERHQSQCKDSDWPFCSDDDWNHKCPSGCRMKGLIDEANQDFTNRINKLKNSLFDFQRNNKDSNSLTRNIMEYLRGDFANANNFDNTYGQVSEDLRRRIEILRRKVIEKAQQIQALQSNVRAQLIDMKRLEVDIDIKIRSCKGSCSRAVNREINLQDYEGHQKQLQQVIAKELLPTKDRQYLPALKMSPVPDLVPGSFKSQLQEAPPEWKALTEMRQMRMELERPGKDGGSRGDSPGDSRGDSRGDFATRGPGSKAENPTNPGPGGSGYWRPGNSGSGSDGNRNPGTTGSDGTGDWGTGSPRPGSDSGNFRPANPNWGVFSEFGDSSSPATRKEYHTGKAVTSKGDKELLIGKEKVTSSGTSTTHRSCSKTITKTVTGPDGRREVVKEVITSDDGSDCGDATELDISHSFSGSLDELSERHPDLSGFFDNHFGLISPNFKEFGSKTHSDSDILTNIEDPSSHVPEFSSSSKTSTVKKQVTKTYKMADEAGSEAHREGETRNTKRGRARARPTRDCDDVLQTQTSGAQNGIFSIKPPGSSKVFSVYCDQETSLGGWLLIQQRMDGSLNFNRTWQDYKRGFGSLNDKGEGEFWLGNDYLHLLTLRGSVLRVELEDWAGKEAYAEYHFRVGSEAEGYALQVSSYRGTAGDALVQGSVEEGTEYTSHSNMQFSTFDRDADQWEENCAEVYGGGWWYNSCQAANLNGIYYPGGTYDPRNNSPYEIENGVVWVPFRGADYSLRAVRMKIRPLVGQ
T1 sequence (Q8K0E8 35-481 limits assumed): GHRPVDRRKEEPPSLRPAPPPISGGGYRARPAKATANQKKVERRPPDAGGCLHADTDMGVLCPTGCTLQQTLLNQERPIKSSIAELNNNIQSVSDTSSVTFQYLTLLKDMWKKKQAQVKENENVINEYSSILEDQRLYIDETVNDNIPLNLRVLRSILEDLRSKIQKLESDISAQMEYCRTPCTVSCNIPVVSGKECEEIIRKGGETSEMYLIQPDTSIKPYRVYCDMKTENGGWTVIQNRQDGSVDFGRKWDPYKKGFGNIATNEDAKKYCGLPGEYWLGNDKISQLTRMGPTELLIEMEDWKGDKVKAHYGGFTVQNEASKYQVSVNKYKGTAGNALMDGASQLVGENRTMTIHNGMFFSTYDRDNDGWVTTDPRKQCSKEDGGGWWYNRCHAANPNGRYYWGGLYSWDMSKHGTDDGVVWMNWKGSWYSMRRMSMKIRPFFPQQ
Method: Hematological Analyses. Citrated plasma was prepared from mice administered intranasally 30 μg or 90 μg of γ^377-395 peptide or saline control daily for seven days. Plasma clotting times were measured by combining 10 μl of citrated plasma with 10 μl of 2 U/ml bovine thrombin (Enzyme Research Laboratories, South Bend, Ind., USA) and 40 mM. CaCl2 in a weigh boatfloating in a 37° C. water bath. Time to clot was determined by mixing with a toothpick. Plasma thrombin times were established as described previously (15). Fibrin polymerization was evaluated by standard turbidity assays using plasma. Briefly, citrate plasma (diluted tenfold in 20 mM HEPES, pH 7.4, containing 0.15 M NaCl and 5 mM-amino caproic acid) was combined with bovine thrombin (final concentration 0.2 U/ml; Enzyme Research Laboratories, South Bend, Ind., USA), and Ca^2+ (10 mM), and OD350 measurements were taken every 30 seconds.

Q: For Fibrinogen, which “increase in phagocytosis as compared to untreated controls” value [1] is on record?
A: 65.3%

Q: What about the “changes in microglia morphology” value (primary microglia; soluble, not immobilized, fibrinogen, data not shown) of the same substance?
A: did not induce changes in microglia morphology

Q: And the “% of activated microglia” value (primary microglia; stimulation with immobilized fibrinogen alone, 72 hours, activated = cells larger than 2,000 μm^2)?
A: 85.5±1.4% and 71±4.9%

Q: What about the “increase of active RhoA” value (RhoA) of the same substance?
A: 1.9 fold

Q: And the “increase in Akt phosphorylation” value (Akt)?
A: 24 fold

Q: For GPRP [GPRP peptide, reference compound], which “effect on fibrin polymerization” value (fibrin) is on record?
A: inhibits

Q: What about the “effect on fibrin polymerization” value (fibrin; listed as GPRP) of the same substance?
A: significantly attenuated

Q: Which results are given for “Lipopolysaccharide [LPS, reference compound]”?
A: increase in phagocytosis as compared to untreated controls [1]: 39.1%; increase of active RhoA (RhoA): 2.4 fold; increase in Akt phosphorylation (Akt): 34 fold
